Assay results published in patent US9957264B2 (Merck Sharp & Dohme Corp., priority 2013, dated 2018).

What was measured:
[1] = target: JAK1 (recombinant purified GST-tagged catalytic domain) (Homo sapiens (Human), UniProt P23458); experiment: Jak Biochemical HTRF Assay (JAK1); details: [ATP] 31.8 μM
Method in brief: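 Kinase reaction with biotinylated peptide substrate was started by ATP addition and run 120 min at room temperature, then quenched with EDTA stop buffer containing streptavidin-Dylight 650 and Eu-pY20 antibody. HTRF read 60 min later (665/615 nm ratio); percent inhibition vs log concentration fit to 4-parameter curve for IC50.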

[2] = target: JAK2 (recombinant purified GST-tagged catalytic domain) (Homo sapiens (Human), UniProt O60674); experiment: Jak Biochemical HTRF Assay (JAK2); details: [ATP] 8.5 μM
Sequence of JAK2 (recombinant purified GST-tagged catalytic domain) (O60674 849-1124): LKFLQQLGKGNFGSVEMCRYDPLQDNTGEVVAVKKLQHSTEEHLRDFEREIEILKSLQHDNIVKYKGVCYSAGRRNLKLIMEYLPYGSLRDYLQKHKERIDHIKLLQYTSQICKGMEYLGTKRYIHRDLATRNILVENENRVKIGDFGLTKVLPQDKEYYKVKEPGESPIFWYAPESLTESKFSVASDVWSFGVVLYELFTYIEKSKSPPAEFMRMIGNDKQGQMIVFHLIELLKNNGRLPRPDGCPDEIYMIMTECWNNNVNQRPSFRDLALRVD

Sequence of JAK1 (recombinant purified GST-tagged catalytic domain) (P23458 875-1153): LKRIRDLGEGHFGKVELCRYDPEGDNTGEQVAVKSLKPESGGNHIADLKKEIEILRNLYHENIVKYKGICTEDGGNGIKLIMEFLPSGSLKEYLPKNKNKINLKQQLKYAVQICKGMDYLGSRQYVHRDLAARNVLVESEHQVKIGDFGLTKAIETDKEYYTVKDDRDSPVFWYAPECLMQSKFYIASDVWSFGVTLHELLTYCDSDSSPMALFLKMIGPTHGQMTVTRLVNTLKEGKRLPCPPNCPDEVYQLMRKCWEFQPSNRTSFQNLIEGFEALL

CC(C)(C)OC(=O)N1CC[C@@](CC#N)(n2nc(Nc3ccc(S(C)(=O)=O)cc3)c3c(=O)[nH]ccc32)[C@@H](F)C1 [Example 5-16, tert-butyl (3S,4S)-4-(cyanomethyl)-3-fluoro-4-(3-{[4-(methyl-sulfonyl)phenyl]amino}-4-oxo-4,5-dihydro-1H-pyrazolo[4,3-c]pyridin-1-yl)piperidine-1-carboxylate]
IC50 [1]: 0.12 nM | IC50 [2]: 0.35 nM

CC(C)(C)OC(=O)N1CC[C@](CC#N)(n2nc(Nc3ccc(S(C)(=O)=O)cc3)c3c(=O)[nH]ccc32)[C@H](F)C1 [Example 5-17, tert-butyl (3R,4R)-4-(cyanomethyl)-3-fluoro-4-(3-{[4-(methylsulfonyl)phenyl]amino}-4-oxo-4,5-dihydro-1H-pyrazolo [4,3-c]pyridin-1-yl) piperidine-1-carboxylate]
IC50 [1]: 0.09 nM | IC50 [2]: 0.08 nM

CN(C)S(=O)(=O)c1ccc(Nc2nn([C@@]3(CC#N)CCN(C(=O)OC(C)(C)C)C[C@H]3F)c3cc[nH]c(=O)c23)cc1 [Example 5-18, tert-butyl (3R,4R)-4-(cyanomethyl)-4-(3-{[4-(dimethylsulfamoyl)phenyl]amino}-4-oxo-4,5-dihydro-1H-pyrazolo [4,3-c]pyridin-1-yl)-3-fluoropiperidine-1-carboxylate]
IC50 [1]: 0.1 nM | IC50 [2]: 0.12 nM

CC(C)(C)OC(=O)N1CC[C@](CC#N)(n2nc(Nc3ccccc3)c3c(=O)[nH]ccc32)[C@H](F)C1 [Example 5-19, tert-butyl (3R,4R)-4-(cyanomethyl)-3-fluoro-4-[4-oxo-3-(phenyl-amino)-4,5-dihydro-1H-pyrazolo[4,3-c]pyridin-1-yl]piperidine-1-carboxylate]
IC50 [1]: 0.08 nM | IC50 [2]: 0.08 nM

CC(C)(C)OC(=O)N1CC[C@](CC#N)(n2nc(Nc3ccc4c(c3)CN(C(C)(C)C)S4(=O)=O)c3c(=O)[nH]ccc32)[C@H](F)C1 [Example 5-22, tert-butyl (3R,4R)-4-{3-[(2-tert-butyl-1,1-dioxido-2,3-dihydro-1,2-benzisothiazol-5-yl)amino]-4-oxo-4,5-dihydro-1H-pyrazolo [4,3-c]pyridin-1-yl}-4-(cyanomethyl)-3-fluoropiperidine-1-carboxylate]
IC50 [1]: 0.15 nM | IC50 [2]: 0.19 nM

CC(C)(C)OC(=O)N1CCC(CC#N)(n2nc(Nc3ccc4c(c3)CN(C(C)(C)C)S4(=O)=O)c3c(=O)[nH]ccc32)CC1 [Example 5-23, tert-butyl 4-{3-[(2-tert-butyl-1,1-dioxido-2,3-dihydro-1,2-benzisothiazol-5-yl)amino]-4-oxo-4,5-dihydro-1H-pyrazolo[4,3-c]pyridin-1-yl}-4-(cyanomethyl)piperidine-1-carboxylate]
IC50 [1]: 0.24 nM | IC50 [2]: 0.34 nM

CC(C)(C)OC(=O)N1CC[C@](CC#N)(n2nc(Nc3ccc4c(c3)CN(CC(F)(F)F)S4(=O)=O)c3c(=O)[nH]ccc32)[C@H](F)C1 [Example 5-24, tert-butyl (3R,4R)-4-(cyanomethyl)-4-(3-{[1,1-dioxido-2-(2,2,2-trifluoroethyl)-2,3-dihydro-1,2-benzisothiazol-5-yl]amino}-4-oxo-4,5-dihydro-1H-pyrazolo[4,3-c]pyridin-1-yl)-3-fluoropiperidine-1-carboxylate]
IC50 [1]: 0.2 nM | IC50 [2]: 0.25 nM

CC(C)(C)OC(=O)N1CCC(CC#N)(n2nc(Nc3ccc4c(c3)CN(CC(F)(F)F)S4(=O)=O)c3c(=O)[nH]ccc32)CC1 [Example 5-25, tert-butyl 4-(cyanomethyl)-4-(3-((1,1-dioxido-2-(2,2,2-trifluoroethyl)-2,3-dihydrobenzo[d]isothiazol-5-yl)amino)-4-oxo-4,5-dihydro-1H-pyrazolo[4,3-c]pyridin-1-yl)piperidine-1-carboxylate]
IC50 [1]: 0.19 nM | IC50 [2]: 0.3 nM

CC(F)(F)C(=O)N1CCC(CC#N)(n2nc(Nc3ccc4c(c3)CN(C(C)(C)C)S4(=O)=O)c3c(=O)[nH]ccc32)CC1 [Example 5-26, 2-(4-(3-((2-(tert-butyl)-1,1-dioxido-2,3-dihydrobenzo [d]isothiazol-5-yl)amino)-4-oxo-4,5-dihydro-1H-pyrazolo[4,3-c]pyridin-1-yl)-1-(2,2-difluoro-propanoyl)piperidin-4-yl) acetonitrile]
IC50 [1]: 0.09 nM | IC50 [2]: 0.1 nM

N#CC[C@@]1(n2nc(Nc3ccccc3)c3c(=O)[nH]ccc32)CCCOC1 [Example 5-27, (S)-2-(3-(4-oxo-3-(phenylamino)-4,5-dihydro-1H-pyrazolo[4,3-c]pyridin-1-yl)tetrahydro-2H-pyran-3-yl)acetonitrile]
IC50 [1]: 0.22 nM | IC50 [2]: 2.81 nM

CN(C)S(=O)(=O)c1ccc(Nc2nn([C@]3(CC#N)CCCOC3)c3cc[nH]c(=O)c23)cc1 [Example 5-28, (S)-4-((1-(3-(cyanomethyl)tetrahydro-2H-pyran-3-yl)-4-oxo-4,5-dihydro-1H-pyrazolo[4,3-c]pyridin-3-yl)amino)-N,N-dimethyl benzenesulfonamide]
IC50 [1]: 0.13 nM | IC50 [2]: 0.29 nM

CN(C)S(=O)(=O)c1ccc(Nc2nn([C@@]3(CC#N)CCCOC3)c3cc[nH]c(=O)c23)cc1 [Example 5-29, (R)-4-((1-(3-(cyanomethyl)tetrahydro-2H-pyran-3-yl)-4-oxo-4,5-dihydro-1H-pyrazolo[4,3-c]pyridin-3-yl)amino)-N,N-dimethyl benzenesulfonamide]
IC50 [1]: 13.5 nM | IC50 [2]: 27.7 nM

CS(=O)(=O)c1ccc(Nc2nn([C@@]3(CC#N)CCCOC3)c3cc[nH]c(=O)c23)cc1 [Example 5-30, (R)-2-(3-(3-((4-(methylsulfonyl)phenyl)amino)-4-oxo-4,5-dihydro-1H-pyrazolo[4,3-c]pyridin-1-yl)tetrahydro-2H-pyran-3-yl)acetonitrile]
IC50 [1]: 12.6 nM | IC50 [2]: 58 nM

CS(=O)(=O)c1ccc(Nc2nn([C@]3(CC#N)CCCOC3)c3cc[nH]c(=O)c23)cc1 [Example 5-31, (S)-2-(3-(3-((4-(methylsulfonyl)phenyl)amino)-4-oxo-4,5-dihydro-1H-pyrazolo [4,3-c]pyridin-1-yl)tetrahydro-2H-pyran-3-yl)acetonitrile]
IC50 [1]: 0.26 nM | IC50 [2]: 1.64 nM

CC(C)(C)OC(=O)[C@@H]1CC[C@@](CC#N)(n2nc(Nc3ccc(S(C)(=O)=O)cc3)c3c(=O)[nH]ccc32)CO1 [Example 5-39, (2S,5S)-tert-butyl 5-(cyanomethyl)-5-(3-((4-(methylsulfonyl)phenyl)amino)-4-oxo-4,5-dihydro-1H-pyrazolo[4,3-c]pyridin-1-yl)tetrahydro-2H-pyran-2-carboxylate]
IC50 [1]: 0.06 nM | IC50 [2]: 0.43 nM

CC(C)(C)OC(=O)[C@H]1CC[C@](CC#N)(n2nc(Nc3ccc(S(C)(=O)=O)cc3)c3c(=O)[nH]ccc32)CO1 [Example 5-40, (2R,5R)-tert-butyl 5-(cyanomethyl)-5-(3-((4-(methylsulfonyl)phenyl)amino)-4-oxo-4,5-dihydro-1H-pyrazolo [4,3-c]pyridin-1-yl) tetrahydro-2H-pyran-2-carboxylate]
IC50 [1]: 2.06 nM | IC50 [2]: 14.6 nM

CN(C)S(=O)(=O)c1ccc(Nc2nn([C@]3(CC#N)CC[C@@H](C(=O)OC(C)(C)C)OC3)c3cc[nH]c(=O)c23)cc1 [Example 5-43, (2S,5S)-tert-butyl 5-(cyanomethyl)-5-(3-((4-(N,N-dimethylsulfamoyl)phenyl)amino)-4-oxo-4,5-dihydro-1H-pyrazolo[4,3-c]pyridin-1-yl)tetrahydro-2H-pyran-2-carboxylate]
IC50 [1]: 0.07 nM | IC50 [2]: 0.14 nM

CC(C)(C)OC(=O)[C@@H]1CC[C@@](CC#N)(n2nc(Nc3ccc4c(c3)CN(CC(F)(F)F)S4(=O)=O)c3c(=O)[nH]ccc32)CO1 [Example 5-44, (2S,5S)-tert-butyl 5-(cyanomethyl)-5-(3-((1,1-dioxido-2-(2,2,2-trifluoroethyl)-2,3-dihydrobenzo[d]isothiazol-5-yl)amino)-4-oxo-4,5-dihydro-1H-pyrazolo[4,3-c]pyridin-1-yl)tetrahydro-2H-pyran-2-carboxylate]
IC50 [1]: 0.14 nM | IC50 [2]: 0.37 nM

CC(C)(C)OC(=O)N1CC(CC#N)(n2nc(Nc3ccnc(F)c3)c3c(=O)[nH]ccc32)C1 [Example 5-46, tert-butyl 3-(cyanomethyl)-3-{3-[(2-fluoropyridin-4-yl)amino]-4-oxo-4,5-dihydro-1H-pyrazolo[4,3-c]pyridin-1-yl}azetidine-1-carboxylate]
IC50 [1]: 3.53 nM | IC50 [2]: 43.5 nM

CC(C)(C)OC(=O)N1CC(CC#N)(n2nc(Nc3ccc(S(=O)(=O)C(F)(F)F)cc3)c3c(=O)[nH]ccc32)C1 [Example 5-47, tert-butyl 3-(cyanomethyl)-3-[4-oxo-3-({4-[(trifluoromethyl)sulfonyl]phenyl}amino)-4,5-dihydro-1H-pyrazolo[4,3-c]pyridin-1-yl]azetidine-1-carboxylate]
IC50 [1]: 7.27 nM | IC50 [2]: 108 nM

CC(C)(C)OC(=O)N1CCC(CC#N)(n2nc(Nc3ccc(F)cc3)c3c(=O)[nH]ccc32)CC1 [Example 5-48, tert-butyl 4-(cyanomethyl)-4-{3-[(4-fluorophenyl)amino]-4-oxo-4,5-dihydro-1H-pyrazolo[4,3-c]pyridin-1-yl}piperidine-1-carboxylate]
IC50 [1]: 0.22 nM | IC50 [2]: 2.26 nM

CC(C)(C)OC(=O)[C@@H]1CC[C@@](CC#N)(n2nc(Nc3ccccc3)c3c(=O)[nH]ccc32)CO1 [Example 5-54, (2S,5S)-tert-butyl 5-(cyanomethyl)-5-(4-oxo-3-(phenylamino)-4,5-dihydro-1H-pyrazolo[4,3-c]pyridin-1-yl)tetrahydro-2H-pyran-2-carboxylate]
IC50 [1]: 0.12 nM | IC50 [2]: 1.62 nM

CN1Cc2cc(Nc3nn([C@]4(CC#N)CC[C@@H](C(=O)OC(C)(C)C)OC4)c4cc[nH]c(=O)c34)ccc2S1(=O)=O [Example 5-55, (2S,5S)-tert-butyl 5-(cyanomethyl)-5-(3-((2-methyl-1,1-dioxido-2,3-dihydrobenzo[d]isothiazol-5-yl)amino)-4-oxo-4,5-dihydro-1H-pyrazolo[4,3-c]pyridin-1-yl)tetrahydro-2H-pyran-2-carboxylate]
IC50 [1]: 0.05 nM | IC50 [2]: 0.12 nM
